According to patent publication US10351706B2, “Near-infrared fluorescent dyes and uses thereof” (East China University of Science and Technology, priority 2015, dated 2019):

What was measured:
[1] = Fluorescence spectral test (PTI QM4 fluorescence spectrometer); assay type: physicochemical; details: different dyes in chloroform solution
Description: (§1) The following data are the spectral test data of compound 3d in different solvents (UV-visible data are taken from Shimadzu UV2600 UV-visible spectrometer and fluorescence data are taken from PTI QM4 fluorescence spectrometer):
(§2) The following data are the spectral test data of different dyes in chloroform solution: […]

[2] = UV-visible absorption spectral test (Shimadzu UV2600 UV-visible spectrometer); assay type: physicochemical; details: different dyes in chloroform solution
Description: as §1, §2

Maximum emission wavelength [1] | Extinction coefficient [2] | Maximum absorption wavelength [2] | Compound
864 nm | 217000 cm^−1M^−1 | 836 nm | CCN(CC)c1ccc2cc3c(cc2c1)C1(c2ccccc2Oc2ccccc21)c1cc2c(cc1=C3c1ccccc1C)C=CC(=[N+](CC)CC)C=2 [Compound 1a]
804 nm | 131000 cm^−1M^−1 | 779 nm | Cc1ccccc1C1=c2cc3c(cc2C2(c4ccccc4Oc4ccccc42)c2cc4cc(O)ccc4cc21)=CC(=O)C=C3 [Compound 4b]
